Like-named read-outs stand apart in the source and are kept apart here.
Legend:
A549 cells = assay: Colony formation assay in SLC25A23 shRNA knock-down A549 cells treated with senescence inducers; assay type: cell-based; settings: three independent shRNAs targeting SLC25A23
DR5 = assay: Western blot of DR5 induction in A549 cells treated with salinomycin and NAC; assay type: cell-based; settings: salinomycin plus NAC
From the text: (Fig. 3A). This notion was also supported by the western blot analysis. We observed that an upregulation of death receptor 5 (DR5), cleavage of caspase 3 and 8 (cl-CASP8 and 3), indicates extrinsic apoptosis activation. […] In Figure 3B, we noticed the upregulation of cJUn and DR5 by salinomycin treatment. This has been denoted by the past studies showing salinomycin could modulate autophagy to induce ROS (Verdoodt 2012). The elevated ROS led to cJun upregulation and NF-kB activation to increase the DR5 expression (Fu 2010). To validated molecular mechanism in our senescent models, we knocked-down cJun, NF-kB2 and Nrf2 using shRNA. […]
• Figure 1: CRISPR-based senolytic screen identifies SLC25A23 as a senolytic target • (A). […] Changes in library representation after 10 days doxycycline treatment were determined by Illumina deep-sequencing. • (B). gRNAs prioritized for further analysis were selected by the fold depletion of abundance in S2 and S1 samples compared with that in P2 and P2 samples, using methods as described previously (Evers et al., Nat Biotech, 2016). […] Cell viability was assessed by colony formation assay in the A549 cells stably infected with doxycycline-inducible Cas9 (iCas9) lentiviral vectors and a guide RNAs target SLC25A23 lentiviral vector. […] Cell viability was assessed by colony formation assay in the A549 and MDA-MB-231 cells. […]

A549 lung cancer cells = assay type: in vivo, BALB/c nude mice
From the text: (§1) In order to obtain a synergistic effect, we combed low doses of DR5 agonist antibody either IgG-conatumumab or IgA-conatumumab with salinomycin, as senolytic cocktails. […] To test this senolytic cocktail in vivo, we used both immunodeficient and immunocompetent mouse models. We engrafted A549 cells into immunodeficient nude mice and Hepa1-6 liver cancer cells in syngeneic immunocompetent C57BL/6 mice. After tumors were established, we treated with alisertib to induce senescence and combinations of the two senolytic drugs.
(§2) Schematic of iCas9-associated senolytic CRISPR screen workflow. A549 cells were infected with a doxycycline-inducible Cas9 (iCas9) lentiviral vector. Next, Brunello lentiviral whole genome-wide gRNA collection virus was introduced to the A549-iCas9 cells. […] Changes in library representation after 10 days doxycycline treatment were determined by Illumina deep-sequencing. • (B). gRNAs prioritized for further analysis were selected by the fold depletion of abundance in S2 and S1 samples compared with that in P2 and P2 samples, using methods as described previously (Evers et al., Nat Biotech, 2016). […] Cell viability was assessed by colony formation assay in the A549 cells stably infected with doxycycline-inducible Cas9 (iCas9) lentiviral vectors and a guide RNAs target SLC25A23 lentiviral vector.

[1] = system: Hepa1-6 liver cancer cells; assay type: in vivo, C57BL/6 mice
From the text: as §1, §2

[2] = system: lung (A549), breast (MDA-MB-231, MCF-7, T47D) and liver (SK-Hep1) cancer models; assay: Colony formation assay, senescent versus proliferating cancer cells treated with salinomycin
[3] = system: alisertib-induced senescent and proliferating A549; assay: Western blot of cell death biomarkers in alisertib-induced senescent and proliferating A549
senescent cells = assay: Cell morphology imaging of senescent cells treated with salinomycin

COc1ccc2c(c1)C1(CC1c1ccc3c(C=Cc4ccc(CN5CC(C)OC(C)C5)cc4)n[nH]c3c1)C(=O)N2 (stereo not shown) [CFI-400945]
sensitivity of SLC25A23 suppressed cells to senescence inducers (A549 cells): highly sensitive

CC(=O)N[C@@H](CS)C(=O)O [N-Acetyl Cysteine (NAC), N-Acetyl Cysteine]
DR5 upregulation in salinomycin treated cells (DR5): could reserve the DR5 upregulation

COc1cc(Nc2ncc3c(n2)-c2ccc(Cl)cc2C(c2c(F)cccc2OC)=NC3)ccc1C(=O)O [alisertib]
tumor growth (A549 lung cancer cells; A549 in nude mice, 25 mg kg-1 alisertib, 1.5 mg kg-1 salinomycin, 5 µg per dose conatumumab (2.5 µg in three-way combination)): limited tumor growth inhibition | sensitivity of SLC25A23 suppressed cells to senescence inducers (A549 cells): highly sensitive | tumor growth ([1]; Hepa1-6 in C57BL/6 mice, 25 mg kg-1 alisertib, 1.5 mg kg-1 salinomycin, 0.3 µg per dose MD5-1): limited tumor growth inhibition

COc1cc([C@@H]2c3cc4c(cc3[C@@H](O[C@@H]3O[C@@H]5CO[C@@H](C)O[C@H]5[C@H](O)[C@H]3O)[C@H]3COC(=O)[C@H]23)OCO4)cc(OC)c1O [etoposide]
sensitivity of SLC25A23 suppressed cells to senescence inducers (A549 cells): highly sensitive

CC[C@@H](C(=O)[C@@H](C)[C@@H](O)[C@H](C)[C@@H]1O[C@@H]([C@@H](CC)C(=O)O)CC[C@@H]1C)[C@H]1O[C@]2(C=C[C@@H](O)[C@]3(CC[C@@](C)([C@H]4CC[C@](O)(CC)[C@H](C)O4)O3)O2)[C@H](C)C[C@@H]1C [salinomycin]
tumor growth (A549 lung cancer cells; mouse, in vivo): limited tumor growth inhibition | killing of senescent cells versus proliferating cells [2]: preferential killing of senescent cells over proliferating cells | Microtubule-associated protein 1A/1B-light chain 3 (LC3) [3]: upregulation | cJUn [3]: upregulation | caspase 3 and 8 (cl-CASP8 and 3) [3]: cleavage | cleaved Gasdermin-D (cl-GSDMD) [3]: upregulation | death receptor 5 (DR5) [3]: upregulation | mixed lineage kinase domain-like protein (MLKL) phosphorylation [3]: increased phosphorylation | cell death phenotype under the microscope (senescent cells): PANoptosis phenotype | tumor growth ([1]; mouse, in vivo): limited tumor growth inhibition

— patent publication EP4631501A1, “COMBINATIONS OF A CALCIUM HOMEOSTASIS DISRUPTOR WITH A DEATH RECEPTOR 5 AGONIST FOR TREATING CANCER” (Stichting Het Nederlands Kanker Instituut- Antoni van …, priority 2024, dated 2025)
